Measurements published in US8552018B2, “Substituted tricyclic compounds as protein kinase inhibitors” (Arizona Board of Regents on behalf of the University of …, priority 2003, dated 2013).

Tests used:
mutant forms of c-Kit = test: Activity against mutant c-Kit (stated); type: biochemical
[1] = test system: Rad51 in SF-767 cancer cells; test: Western blotting for Rad51 after IR; type: cell-based; settings: SF-767 cells pretreated with MP470
[2] = test system: LNCaP prostate carcinoma cells; test: Apoptosis assays (morphology, PARP cleavage immunoblot); type: cell-based; settings: 48 hours
Method: Induction of apoptosis by MP-470 (Compound III-1-3) was further evaluated in LNCaP prostate carcinoma cells using three different assays. First, cells were treated with MP-470 at a variety of concentrations, with or without addition of Tarceva® (erlotinib) for 48 hours. Cells were then examined for the morphological characteristics of apoptosis (membrane blebbing, nuclear fragmentation, etc.) and scored according to a binary scale (apoptotic versus non-apoptotic).
As a more quantifiable means of determining apoptosis induction, cells were also lysed and total protein was used in an immunoblot assay for poly-[ADP ribose] polymerase (PARP) cleavage, a hallmark of apoptosis.

[3] = test system: pancreatic cancer cell lines MIAPaCa-2 and PANC-1; test: Cancer cell cytotoxicity assay, range over both pancreatic lines; type: cell-based; settings: potency order
Method: To validate the hypothesis that the designed c-kit/PDGFR tyrosine kinase inhibitors mediate GIST882 cell killing and PDGFR-mediated cell killing of pancreatic cancer cell lines (CFPAC-1, PANC-1 and MIA PaCa-2), an in vitro cytotoxicity assay was performed. The GIST882 cell line used in this study has a c-kit gain-of-function mutation (K642E). […] First the cells were cultured. GIST882 cells were provided by Dr. Jonathan A. Fletcher (Dana-Farber Cancer Institute, Boston, Mass.). PANC-1 and MIAPaCa-2 cells were provided by Dr. Daniel Von Hoff (Arizona Cancer Center, Tucson, Ariz.). […] All the cell lines were incubated in a humidified incubator at 37° C. with 5% CO2 atmosphere.
After incubation for 4 days at 37° C. in a humidified incubator, the cells were fixed with 10% Trichloroacetic acid solution (Catalog No. 490-10, Sigma). Subsequently, they were labeled with 0.04% Sulforhodamine B (S9012, Sigma) in 1% acetic acid. […] The absorbance of each well was read on a plate reader (Wallac Vector^2, PerkinElmer) at the wavelength of 570 nm. Data were expressed as the percentage of survival of control calculated from the absorbance corrected for background absorbance. The surviving percent of cells was determined by dividing the mean absorbance values of the […] by the mean absorbance values of the control and multiplying by 100.

LNCaP prostate cells = test: MTT assay; type: cell-based; settings: Homo sapiens, read-out: IC50 (cell survival reduced to 50% of vehicle-treated controls), FIG. 30
Method: An MTT assay was performed to determine the number of viable cells in each well for each concentration of compound, and also for a set of vehicle controls (DMSO).

[4] = test system: general tyrosine phosphorylation in NIH 3T3 cells; test: Immunoblot for phosphotyrosine; type: cell-based
Method: MP-470 (Compound III-1-3) has inhibitory effects on a number of receptor tyrosine kinases. In order to evaluate these effects at the cellular level, immunoblot analysis was performed on lysates from cells treated with MP470, with or without the addition of the EGFR inhibitor Tarceva®. Lysates were assayed for general tyrosine kinase activity, as well as the specific phosphorylation of c-Met and Akt. Briefly, NIH 3T3 cells were pretreated with drugs as indicated for 4 hours, then treated with pervanadate for a further 30 minutes. Immunoblot detection was carried out with antibodies for phosphotyrosine, phospho-Met and phospho-Akt (S473), as well as total c-Met and Akt. Beta-actin was used as a loading control.

mutant forms of PDGFR = test: Activity against mutant PDGFR (stated); type: biochemical
[5] = test system: Akt phosphorylation in LNCaP prostate carcinoma cells; test: Immunoblot for phospho-Akt (S473); type: cell-based; settings: 48 hours
Method: LNCaP prostate carcinoma cells were treated with MP-470, in combinations with Tarceva® and Gleevec®, for 48 hours. Following incubation, cells were lysed and total protein subjected to immunoblot analysis for total Akt and phospho-Akt (S473).

[6] = test system: MiaPaCa-2 pancreatic cancer cells; test: Apoptosis assay (Annexin V or TUNEL); type: cell-based
Method: (§1) Induction of apoptosis in cancer cells is a common mechanism of action for anti-cancer agents. To determine the role of MP470 in apoptosis, tumor cells were incubated with either compound and analyzed for apoptosis using Annexin V or TUNEL assays. […] In MiaPaCa-2 cells, MP470 at […] induced 81.4% apoptosis, while at 1 μM it induced 71% apoptosis. In Panc1 cells, MP470 at 10 μM induced over a 3-fold increase in apoptotic cells compared with non-treated cells.

[7] = test system: Panc-1 pancreatic cancer cells; test: Apoptosis assay (Annexin V or TUNEL); type: cell-based; settings: Panc1, 10 μM
Method: as §1

LNCaP tumors = test: Xenograft study; type: in vivo, mice; settings: MP-470/Tarceva® in combination, 18 days treatment, FIG. 35
Method: A xenograft study was carried out in order to evaluate the combined effects of MP-470 (Compound III-1-3) and Tarceva® in vivo. LNCaP cells were injected into immunocompromised mice and allowed to develop into measurable tumors, at which point treatment was initiated. Mice were allocated to one of four groups and treated with vehicle, MP-470 (referred to in FIG. 35 as HPK56), Tarceva®, or MP-470/Tarceva® in combination, as indicated. […] The results of these studies are shown in graphical form in FIG. 35.

[8] = test system: LNCaP prostate carcinoma cells; test: Flow cytometric analysis (sub-G1 peak); type: cell-based; settings: 48 hours, MP-470 alone
Method: (§2) In addition, A549 non-small cell lung cancer (NSCLC) cells and LNCaP prostate carcinoma cells were treated with MP-470 in the presence or absence of Tarceva® for 48 hours and subjected to flow cytometric analysis. Nocodazole was also included to induce a G2/M arrest, in an effort to determine if these compounds could overcome such a block. Left-hand columns for each cell type represent cells with no additional treatment, while right-hand columns represent cells pretreated overnight with nocodazole (0.3 ug/mL) to induce G2/M arrest.

[9] = test system: A549 non-small cell lung cancer (NSCLC) cells; test: Flow cytometric analysis (sub-G1 peak); type: cell-based; settings: A549, 48 hours, MP-470 alone
Method: as §2

c-Kit = c-Kit (Homo sapiens, UniProt P10721); test: c-kit kinase inhibitory activity (stated in Example 32); type: biochemical
c-Kit, sequence (P10721 26-976): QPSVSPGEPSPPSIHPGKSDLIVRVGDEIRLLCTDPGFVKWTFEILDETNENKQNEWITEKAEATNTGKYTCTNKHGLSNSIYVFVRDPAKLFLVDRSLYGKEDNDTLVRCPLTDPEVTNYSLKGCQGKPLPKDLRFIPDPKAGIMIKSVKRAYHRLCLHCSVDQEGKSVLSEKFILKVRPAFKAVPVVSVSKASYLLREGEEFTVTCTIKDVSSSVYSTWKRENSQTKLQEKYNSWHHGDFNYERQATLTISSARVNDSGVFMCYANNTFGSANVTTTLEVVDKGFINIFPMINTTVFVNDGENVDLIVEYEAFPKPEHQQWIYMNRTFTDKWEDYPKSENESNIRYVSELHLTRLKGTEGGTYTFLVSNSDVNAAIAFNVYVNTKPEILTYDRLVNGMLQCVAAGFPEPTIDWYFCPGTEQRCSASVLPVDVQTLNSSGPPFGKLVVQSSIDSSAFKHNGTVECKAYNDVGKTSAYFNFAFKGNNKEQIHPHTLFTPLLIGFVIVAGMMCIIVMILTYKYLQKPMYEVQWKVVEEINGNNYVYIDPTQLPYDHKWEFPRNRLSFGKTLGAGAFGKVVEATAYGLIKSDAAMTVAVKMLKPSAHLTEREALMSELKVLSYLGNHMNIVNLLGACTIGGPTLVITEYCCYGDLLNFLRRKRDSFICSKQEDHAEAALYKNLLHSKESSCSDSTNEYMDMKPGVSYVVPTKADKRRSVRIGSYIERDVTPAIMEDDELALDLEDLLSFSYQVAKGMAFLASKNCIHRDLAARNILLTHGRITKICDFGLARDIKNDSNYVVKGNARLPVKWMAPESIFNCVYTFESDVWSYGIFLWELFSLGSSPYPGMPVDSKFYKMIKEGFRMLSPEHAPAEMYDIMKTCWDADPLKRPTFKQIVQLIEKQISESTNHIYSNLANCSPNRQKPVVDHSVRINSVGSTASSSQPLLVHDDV

| SMILES | activity against mutant forms of c-Kit (in words) (mutant forms of c-Kit) | Rad51 protein levels after exposure to IR [1] | apoptosis induction ([2]; MP-470 alone) | apoptosis induction ([2]; MP-470 in the presence of erlotinib) | IC50 [3] [µM] | IC50 (LNCaP prostate cells) [µM] | general tyrosine phosphorylation [4] | activity against mutant forms of PDGFR (in words) (mutant forms of PDGFR) | reduction of phosphorylation of Akt ([5]; MP-470 and Tarceva® in combination) | phosphorylation of Akt ([5]; agent alone) | apoptosis ([6]; MiaPaCa-2, 1 μM) [%] | apoptosis ([6]; MiaPaCa-2, 100 μM) [%] | increase in apoptotic cells compared with non-treated cells [7] [fold] | tumor growth (LNCaP tumors) | apoptosis (sub-G1 peak) [8] | apoptosis (sub-G1 peak) [9] | inhibitory activity against c-kit kinase (in words) (c-Kit) |
| --- | --- | --- | --- | --- | --- | --- | --- | --- | --- | --- | --- | --- | --- | --- | --- | --- | --- |
| S=C(NCc1ccc2c(c1)OCO2)N1CCN(c2ncnc3c2oc2ccccc23)CC1 [HPK56, 4-Benzo[4,5]furo[3,2-d]pyrimidin-4-yl-piperazine-1-carbothioic acid (benzo[1,3]dioxol-5-ylmethyl)-amide] | low nanomolar | remained low and near control level | dose-dependent increase in apoptosis | enhanced | 2.1 to 3 | ~5 | reduced | low nanomolar | enhanced | reduced in a dose-dependent manner | 71 | 81.4 | > 3 | slowed tumor growth to nearly zero | induced apoptosis | induced apoptosis | – |
| COc1cc2[nH]c3ncnc(N4CCN(C(=S)Nc5ccc(S(=O)(=O)Nc6ncccn6)cc5)CC4)c3c2cc1OC [HPK62, 4-(6,7-Dimethoxy-9H-1,3,9-triaza-fluoren-4-yl)-piperazine-1-carbothioic acid [4-(pyrimidin-2-ylsulfamoyl)-phenyl]-amide] | – | – | – | – | – | – | – | – | – | – | – | – | – | – | – | – | low μM |
